Reference: article PMC12650180, “Discovery of Drug-like Inhibitors of the Human Caf1/CNOT7 poly(A)-Selective Nuclease Using Compound Screening” (Biomolecules, 2025)

Molecular target: human Caf1/CNOT7 (Homo sapiens, UniProt Q9UIV1)
Assay: Fluorescence-based Caf1/CNOT7 nuclease activity assay (Flc-RNA substrate, TAMRA-labelled DNA probe)
Type: biochemical
Settings: mean ± standard deviation; 0.4 μM Caf1/CNOT7, 0.1 μM Flc-RNA substrate, 15 min preincubation, 60 min at 30 °C
Description: Compounds (10 mM in DMSO) were stored in a dry, inert environment at −20 °C in an automated sample management system (comPOUND, TTP Labtech Technology, Melbourn, UK). After dispensing aliquots in 96-well plates, compounds were diluted to 0.5 mM in 20% DMSO/water. Aliquots ([…]; […]) were transferred to black U-well 384-well plates (Greiner Bio-One, Kremsmünster, Austria) using a multichannel pipette. Subsequent screening was carried out as described before with modifications for use with a Biomek 3000 liquid handler (Beckman Coulter, Brea, CA, USA). First, enzyme (8 μL containing 1.0 μM Caf1/CNOT7, 50 mM Tris–HCl pH 7.9, 125 mM NaCl, 5 mM MgCl2, 25% glycerol, 2.5 mM β-mercaptoethanol) was added. After mixing, the mixture was left at room temperature for 15 min before the addition of RNA substrate (8 μL; 0.25 μM Flc-RNA substrate in H2O). The composition of the final reaction mixture was: 0.4 μM Caf1/CNOT7, 0.1 μM Flc-RNA substrate, 20 mM Tris–HCl pH 7.9, 50 mM NaCl, 2 mM MgCl2, 10% glycerol, 1 mM β-mercaptoethanol, 5% DMSO, and 100 μM library compound. After incubation at 30 °C for 60 min, 20 μL probe mix (5 μM DNA probe, 1% SDS, 20 mM Tris–HCl pH 8.0, 0.5 mM EDTA) was added. Fluorescence was measured using a BioTek Synergy HT plate reader using the following filters: 485 ± 20 nm (excitation) and 528 ± 20 nm (emission). Hits were identified following data analysis in Microsoft Excel. Screening data was visualised using GraphPad Prism (version 10.4.0).
Reaction conditions and fluorescence measurements were as described above and before. Non-linear regression was carried out using GraphPad Prism 5.0. IC50 values were typically determined using three independent experiments, each containing three replicates.
To discover new inhibitors of the Caf1/CNOT7 nuclease subunit of the Ccr4–Not complex, we screened a sub-set of the Nottingham Managed Chemical Compound Collection, which contains over 83,000 synthetic compounds that are commercially available and were selected based on chemical diversity and drug-like properties. A representative sub-set of 10,880 compounds was selected and screened in duplicate in a 384-well plate format (Figure 1A). The library compounds were screened using a fluorescence-based activity assay that was developed previously. Briefly, purified Caf1/CNOT7 enzyme was pre-incubated with library compounds. This was followed by the addition of a 5′ fluorescein-labelled RNA oligonucleotide containing a stretch of nine adenosine residues at the 3′ end that served as substrate for Caf1/CNOT7. After incubation, the reaction was terminated and a 3′ TAMRA-labelled DNA probe complementary to the substrate was added. […] However, in case Caf1/CNOT7 was inhibited, the substrate remained intact, resulting in annealing of the DNA probe and quenching of fluorescence due to the close vicinity of the fluorescein and TAMRA fluorophores (Figure 1B).
Figure 3 Determination of the IC50 values of small-molecule inhibitors of Caf1/CNOT7. Compounds were preincubated with Caf1/CNOT7 for 15 min at room temperature, followed by the addition of RNA substrate. After incubation (60 min at 30 °C), reactions were stopped by the addition of SDS and a 5-fold molar excess of DNA probe. The mean values for each independent experiment were plotted (Open square, experiment 1; closed circle, experiment 2; diamond, experiment 3).

Sequence of human Caf1/CNOT7 (Q9UIV1 whole entry): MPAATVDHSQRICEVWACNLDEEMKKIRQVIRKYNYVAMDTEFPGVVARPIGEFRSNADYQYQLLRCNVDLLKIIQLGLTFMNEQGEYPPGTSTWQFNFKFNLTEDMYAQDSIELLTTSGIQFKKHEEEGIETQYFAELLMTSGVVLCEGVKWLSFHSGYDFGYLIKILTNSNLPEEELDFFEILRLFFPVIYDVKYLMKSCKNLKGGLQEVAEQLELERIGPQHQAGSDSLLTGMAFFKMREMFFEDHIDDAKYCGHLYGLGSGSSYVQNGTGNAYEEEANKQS

Compound	IC50 [µM]
Cc1ccc2nc(NC(=O)c3cc(Br)c[nH]3)sc2c1 [Compound 1]	17.8 ± 0.1
Cc1ccc(NC(=O)c2c[nH]nc2-c2ccc(Cl)cc2)nc1 [Compound 2]	19.5 ± 3.4
CC(=O)c1c(C)[nH]c(C(=O)Nc2nnc(Cc3ccccc3)s2)c1C [Compound 3]	20.7 ± 0.9
CC(NC(=O)c1ccoc1)C(=O)Nc1cc(-c2cc(Cl)cc(Cl)c2)[nH]n1 (centres unmarked) [Compound 6]	19.7 ± 2.5
Cc1cccc2sc(NC(=O)CCC(=O)c3ccc(F)cc3)nc12 [Compound 8]	18.9 ± 4.3
N#Cc1cccc(NC(=O)C(C#N)c2nc3ccccc3s2)c1 (centres unmarked) [Compound 9]	18.4 ± 5.9
N#Cc1cc(C#N)c(SCc2nnc(-c3cccs3)o2)nc1N [Compound 12]	21.3 ± 4.6
Cc1ccc(CN(Cc2ccc(C)n2C)C(=O)COc2ccccc2C#N)n1C [Compound 15]	24.4 ± 9.2
Cc1sc2nc(COC(=O)Cn3cc(C(F)(F)F)ccc3=O)nc(N)c2c1C [Compound 16]	122 ± 10.7
O=S(=O)(Nc1ccc(SC(F)F)cc1)c1cnn(-c2ccccc2)c1 [Compound 17]	77.7 ± 0.3
CCOC(=O)Cc1ncccc1C(=O)Nc1ccc(Br)c(C(F)(F)F)c1 [Compound 18]	57.3 ± 10.1
O=C(Nc1nc(-c2ccc(Cl)s2)cs1)c1ccc(O)nc1 [Compound 19]	161 ± 13.7
O=C(Nc1cc(Br)cnc1O)c1ccc2ccccc2c1 [Compound 20]	256 ± 20.4
O=C(COC(=O)Cc1ccc(-c2ccccc2)cc1)NC(=O)c1cccs1 [Compound 21]	78.3 ± 9.5

Continued, values first:

IC50 [µM]	Compound
16.8 ± 2.1	Cc1cc(NC(=O)NC2(C(F)(F)F)Oc3ccc(Cl)cc3O2)no1 (centres unmarked) [Compound 4]
17.5 ± 4.2	O=C(Cc1c[nH]c2ccccc12)OCc1ccc(F)cc1Cl [Compound 5]
17.4 ± 2.7	CC(C)c1ccc(-c2nnn(CC(=O)NC(=O)NCc3ccccc3)n2)cc1 [Compound 7]
17.3 ± 1.1	CC(=O)Nc1cccc(NC2=NN=C(c3cc(C)[nH]c3C)CS2)c1 [Compound 10]
15.6 ± 3.2	CC(C)CCn1c(SCC(=O)NC(N)=O)nc2cc(Cl)ccc2c1=O [Compound 11]
14.5 ± 10.7	CC(C)NC(=O)Nc1cccc(C(=O)Nc2ccc3oc(C(F)(F)F)nc3c2)c1 [Compound 13]
